Reference: patent US4683221A, “Lymphocyte-activating polypeptides” (Scripps Clinic and Research Foundation, priority 1986, dated 1987)
Ends that are not written are not given here.

What was measured:
Type in all cases: cell-based
[1] = test system: murine plastic-adherent macrophages; assay: Prostaglandin E secretion (radioimmune assay); conditions: 25 ug/ml of p23 or an equimolar amount of another polypeptide, 24 hours; initial data
Procedure: (§1) The cell lines used in these studies were: (1) murine plastic-adherent macrophages; (2) human plastic-adherent monocytes; and (3) the murine macrophage-like cell line denominated P388.D1 [Snyderman et al., J. Immunol., 119, 2060 (1977)]. […] Thereafter, the cell culture supernatant was assayed for the presence of a prostaglandin E using a commercially available radioimmune assay (Seragen).

[2] = test system: murine macrophage-like cell line denominated P388.D1; assay: Prostaglandin E secretion (radioimmune assay); conditions: 25 ug/ml of p23 or an equimolar amount of another polypeptide, 24 hours; initial data
Procedure: as §1

[3] = test system: human plastic-adherent monocytes; assay: Prostaglandin E secretion (radioimmune assay); conditions: 25 ug/ml of p23 or an equimolar amount of another polypeptide, 24 hours; initial data
Procedure: as §1

mouse spleen cells = assay: Polyclonal antibody response assay (Ig secretion measured by ELISA); conditions: C57BL/6 spleen cells, 5 days; equimolar amounts of polypeptide, 1.5 mg/ml of p23 as standard
Excerpt: This assay measures the activity of a polypeptide in potentiating an in vitro polyclonal antibody response using mouse spleen cells.
For the generation of immunoglobulin (Ig) secretion response, spleen cells from inbred male 8-15 week old C57BL/6 mice (The Jackson Laboratory, Bar Harbor, ME) were suspended in RPMI 1640 medium (M.A. Bioproducts, Walkersville, MD) supplemented with 2 millimolar (mM) L-glutamine, one percent BME vitamins (GIBCO, Grand Island, NY), 5×10^-5 molar (M) 2-mercaptoethanol, 7.5 percent fetal calf serum (FCS;GIBCO), and 0.001 percent gentamicin (Schering Corp., Kenilworth, NJ). Cells (6×10^5) in 0.2 milliliters (ml) of the supplemented medium were added to flat-bottomed microtiter plate wells (No. 3596: Costar, Cambridge, MA). Cultures were established in triplicate, and a polypeptide-containing composition was added in a volume of 50 microliters per well (ul/well).
To establish comparison between polypeptides of different lengths, equimolar amounts of polypeptide were used, with 1.5 milligrams per milliter (mg/ml) of the 23-residue polypeptide corresponding in sequence to positions 335-357 of the human IgGl myeloma protein as standard. […] Supernatants from triplicate cell culture wells were harvested, pooled, centrifuged to remove cells and stored at -20° C. Concentrations of Ig in the supernatants were determined by the ELISA assay described hereinbelow.
The ELISA utilized to measure polyclonal activation was a so-called "sandwich" assay in which the assayed entity, mouse Ig molecules, are bound to solid phase-bound anti-mouse Ig antibodies and then bound by indicator (alkaline phosphatase)-linked anti-mouse Ig antibodies.
(B) 100 Microliters of various dilutions of either the Ig standard or culture supernatants were then admixed in PBS-Tween. […]
Each well then received 100 ul of 1 mg p-nitrophenyl phosphate (Sigma Chemical Co., St. Louis, MO) in 0.05 M carbonate, pH 9.8. The reaction was stopped with 50 ml of 0.3 N NaOH, and the light absorbance at 410 nanometers (nm) was measured by using a Dynatech model MR600 ELISA reader. […]

Substance	secretion of a prostaglandin E into the culture medium [1]	secretion of a prostaglandin E into the culture medium [2]	secretion of a prostaglandin E into the culture medium [3]	Ig Found (amount of polyclonal Ig molecules found in the assay) (mouse spleen cells) [µg/mL]
LPPSREE [I-51(a), Leu-Pro-Pro-Ser-Arg-Glu-Glu]	incapable of inducing	incapable of inducing	incapable of inducing	10.2
QVYTLPPSREE [I-51(c)]	incapable of inducing	incapable of inducing	incapable of inducing	11.7
YTLPPSREE [I-51(b)]	incapable of inducing	incapable of inducing	incapable of inducing	10.7
